Molecular target: T1, glucagon receptor (Homo sapiens, UniProt P47871)
T1 construct: expressed in transfected cells; host or cells: Chinese Hamster Ovary cells (CHO-HGR), membranes
Assay: glucagon receptor binding assay (125I-glucagon, CHO-HGR membranes)
Details: 20 μM; reported where 20 μM did not reduce glucagon binding by 50%
In short: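 Membranes from CHO cells expressing glucagon receptor (10 ug protein) in Tris pH 7.4 buffer with EDTA, BSA and bacitracin, incubated with test compound and 125I-glucagon (9 fmol) 60 min at room temperature. Bound radioactivity counted after filtration; nonspecific binding defined with 1 μM native glucagon; 0.5% DMSO.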

T1 sequence (P47871 26-477): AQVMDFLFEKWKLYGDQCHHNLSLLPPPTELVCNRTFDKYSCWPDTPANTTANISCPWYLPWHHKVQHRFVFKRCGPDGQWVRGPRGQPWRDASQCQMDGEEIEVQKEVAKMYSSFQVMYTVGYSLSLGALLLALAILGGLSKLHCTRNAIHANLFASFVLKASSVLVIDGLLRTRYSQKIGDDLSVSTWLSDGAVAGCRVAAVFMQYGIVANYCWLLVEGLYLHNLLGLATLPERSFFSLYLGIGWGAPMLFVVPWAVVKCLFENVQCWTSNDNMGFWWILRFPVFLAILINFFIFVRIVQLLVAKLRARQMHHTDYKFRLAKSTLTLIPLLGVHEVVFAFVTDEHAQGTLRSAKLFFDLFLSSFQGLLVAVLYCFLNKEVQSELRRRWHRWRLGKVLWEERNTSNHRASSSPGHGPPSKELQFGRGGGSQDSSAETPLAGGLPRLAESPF

SMILES | inhibition at 20 µM
CCCCCc1c(C(C)C)nc(C(C)C)c(CO)c1-c1ccccc1C [Example 142, 2,6-Diisopropyl-3-hydroxymethyl-4-(2-methylphenyl)-5pentylpyridine] | 33.1%
CCCC=Cc1c(C(C)C)nc(C(C)C)c(CO)c1-c1ccc(-c2ccccc2)cc1 [Example 135, 2,6-Diisopropyl-3-hydroxymethyl-4-[4-(phenyl)phenyl]-5-(pent-1-enyl)pyridine] | 4.64%
CCc1nc(CC)c(CO)c(-c2ccccc2)c1C=C(C)C [Example 5] | 12.4%
CCCC=Cc1c(C(C)C)nc(C(C)C)c(CO)c1-c1ccc(SC)cc1 [Example 174, 2,6-Diisopropyl-3hydroxymethyl-4-[4-(methylthio)phenyl]-5-(pent-1-enyl)pyridine] | 33.4%
COC(=O)c1c(C(C)C)nc(C(C)C)c(CN2CCC(N3CCCCC3)CC2)c1-c1ccc(F)cc1 [Example 73, Methyl-2,6-diisopropyl-4-(4-fluorophenyl)-5-(4piperidinopiperidin-1-yl)methyl-3-pyridinecarboxylate] | 17.5%
CCCCCc1c(C(C)C)nc(C(C)C)c(C(O)C[S@+]([O-])c2ccc(C)cc2)c1-c1ccc(F)cc1 (single isomer, unassigned) [Example 112] | 4.17%

Next, values leading:

inhibition at 20 µM | SMILES
26.5% | CCCCC(O)c1c(C(C)C)nc(C(C)C)c(CO)c1-c1ccc(F)cc1 (racemic) [Example 95, (±)-2,6-Diisopropyl-3-hydroxymethyl-4-(4-fluorophenyl)-5-(1-hydroxy-pentyl)pyridine]
32.8% | CCCCCc1c(CO)nc(C(C)C)c(CO)c1-c1ccc(F)cc1 [Example 200, 2,5-Bis(hydroxymethyl)-3-pentyl-4-(4-fluorophenyl)-6-isopropylpyridine]
35.3% | CCCCCc1c(C(C)C)nc(C(C)C)c(CO)c1-c1ccc(C(F)(F)F)cc1 [Example 126, 2,6-Diisopropyl-3-hydroxymethyl-4-[(4-trifluoromethyl)phenyl]-5-pentylpyridine]
37.1% | CCCCCc1c(C(C)C)nc(C(C)C)c(CO)c1-c1ccc(OC)cc1 [Example 169, 2,6-Diisopropyl-3-hydroxymethyl-4-(4-methoxyphenyl)-5-pentyl-pyridine]
30.2% | CCCCCc1c(C(C)C)nc(C(C)C)c(CCO)c1-c1ccc(F)cc1 [Example 119, 2,6-Diisopropyl-3-(2-hydroxyethyl)-4-(4fluorophenyl)-5-pentylpyridine]
8.67% | CCCCCc1c(CN2CCOCC2)nc(C(C)C)c(CO)c1-c1ccc(F)cc1 [Example 199, 2-Morpholinomethyl-3-pentyl-4-(4-fluorophenyl)-5-hydroxymethyl-6-isopropylpyridine]
29.1% | CC(C)c1nc(C(C)C)c(CCCCCCCN(C)C)c(-c2ccc(F)cc2)c1CO [Example 90]
48.8% | CCCCCc1c(C(C)C)nc(C(C)C)c(CO)c1-c1cccc(Cl)c1 [Example 146, 2,6-Diisopropyl-3-hydroxymethyl-4-(3-chlorophenyl)-5-pentylpyridine]
49.1% | CCCCCc1c(C(C)C)nc(C(C)C)c(CO)c1-c1ccc(F)c(C(C)O)c1 (centres unmarked) [Example 182, 2,6-Diisopropyl-3-hydroxymethyl-4-[4-fluoro-3-(1-hydroxyethyl)phenyl]-5-pentylpyridine]

Same assay, conditions: 125I-glucagon; 60 min at room temperature; read-out: IC50

SMILES | IC50
CC(C)c1nc(C(C)C)c(CNC2CC2)c(-c2ccc(F)cc2)c1CO [Example 77, 2,6-Diisopropyl-3-hydroxymethyl-4-(4-fluorophenyl)-5-(cyclopropyl-amino)methylpyridine] | 6000 nM
CC(C)c1nc(C(C)C)c(CO)c(-c2ccc(F)cc2)c1C=C1CCCC1 [Example 31, 2,6-Diisopropyl-3-hydroxymethyl-4-(4-flurorphenyl)-5-(cyclopentyl-idenemethylene)pyridine] | 2600 nM
CC=Cc1c(C(C)C)nc(C(C)C)c(CO)c1-c1ccccc1 [Example 12] | 1700 nM
CCC=Cc1c(C(C)C)nc(C(C)C)c(CO)c1-c1ccc(F)cc1 [Example 20, 2,6-Diisopropyl-3-hydroxymethyl-4-(4-fluorophenyl)-5-(l-butenyl)-pyridine] | 1300 nM
CC(C)c1nc(C(C)C)c(CNC2CCCCC2)c(-c2ccc(F)cc2)c1CO [Example 78, 2,6-Diisopropyl-3-hydroxymethyl-4-(4-fluorophenyl)-5-(cyclohexylamino)methylpyridine] | 7500 nM
Cc1cccc(SCc2c(C(C)C)nc(C(C)C)c(CO)c2-c2ccc(F)cc2)c1 [Example 57, 2,6-Diisopropyl-3-hydroxymethyl-4-(4-fluorophenyl)-5-[(3-methyl-phenyl)thio]methylpyridine] | 1100 nM
CCc1c(C(C)C)cc(C(C)C)c(C(C)O)c1-c1ccc(F)cc1 (single isomer, unassigned; (+)) [Example 244, (+)-3,5-Diisopropyl-2-(1-hydroxyethyl)-6-ethyl-4'-fluoro-1,1'-biphenyl] | 180 nM
CCCc1c(C(C)C)nc(C(C)C)c(CO)c1-c1ccccc1 [Example 17] | 600 nM
CCCCCc1c(C(C)C)nc(C(C)C)c(CO)c1-c1cccc(F)c1 [Example 128, 2,6-Diisopropyl-3-hydroxymethyl-4-(3-fluorophenyl)-5-pentylpyridine] | 3000 nM
CCCCCc1c(C(C)C)cc(C(C)C)c(C(C)O)c1-c1ccc(F)cc1O (centres unmarked) [Example 247, 3,5-Diisopropyl-2-(1-hydroxyethyl)-6-pentyl-4'-fluoro-2'-hydroxy-1,1'-biphenyl] | 6 nM
CCCCc1c(C(C)C)nc(C(C)C)c(CO)c1-c1ccccc1 [Example 18, 2,6-Diisopropyl-3-hydroxymethyl-4-phenyl-5-butylpyridine] | 750 nM
CC=Cc1c(C(C)C)nc(C(C)C)c(CO)c1-c1ccc(F)cc1 [Example 21, 2,6-Diisopropyl-3-hydroxymethyl-4-(4-fluorophenyl)-5-(1-propenyl)-pyridine] | 800 nM
CCCC=Cc1c(C(C)C)nc(C(C)C)c(CO)c1-c1ccc(C)cc1 [Example 129, 2,6-Diisopropyl-3-hydroxymethyl-4-(4-methylphenyl)-5-(Pent-1-enyl)-pyridine] | 1500 nM
CC(C)c1cc(C(C)C)c(CSc2c(F)c(F)c(Cl)c(F)c2F)c(-c2ccc(F)cc2)c1CO [Example 287] | 20000 nM
COc1ccccc1SCc1c(C(C)C)nc(C(C)C)c(CO)c1-c1ccc(F)cc1 [Example 60, 2,6-Diisopropyl-3-hydroxymethyl-4-(4-fluorophenyl)-5-[(2-methoxy-phenyl)thio]methylpyridine] | 1600 nM
CC(C)c1nc(C(C)C)c(CO)c(-c2ccc(F)cc2)c1/C=C/c1ccccc1 [Example 34, 2,6-Diisopropyl-3hydroxymethyl-4-(4-fluorophenyl)-5-[2(E)-phenyl-ethenyl]pyridine] | 600 nM
CC(C)c1nc(C(C)C)c(CSc2cccc(C(F)(F)F)c2)c(-c2ccc(F)cc2)c1CO [Example 48, 2,6-Diisopropyl-3-hydroxymethyl-4-(4-fluorophenyl)-5-[((3-trifluoro-methyl)phenyl)thio]methylpyridine] | 1800 nM
Cc1ccc(CCCc2c(C(C)C)nc(C(C)C)c(CO)c2-c2ccc(F)cc2)cc1 [Example 86, 2,6-Diisopropyl-3-hydroxymethyl-4-(4-fluorophenyl)-5-[3-(4methyl-phenyl)propyl]pyridine] | 1100 nM

Further lines, results first:

IC50 | SMILES
750 nM | CCCCc1c(C(C)C)nc(C(C)C)c(CO)c1-c1ccc(F)cc1 [Example 24, 2,6-Diisopropyl-3-hydroxymethal-4-(4fluorophenyl)-5-butylpyridine]
1000 nM | CC(C)CCc1c(C(C)C)nc(C(C)C)c(CO)c1-c1ccc(F)cc1 [Example 29, 2,6-Diisopropyl-3-hydroxymethyl-4-(4-fluorophenyl)-5-(3-methylbutyl)pyridine]
18000 nM | CCCCCc1c(C(C)O)nc(C(C)C)c(CO)c1-c1ccc(F)cc1 (centres unmarked) [Example 210, 2-(1-Hydroxyethyl)-3-pentyl-4-(4-fluorophenyl)-5-hydroxymethyl-6-isopropylpyridine]
1300 nM | CCCCCc1c(CCc2ccccc2)nc(C(C)C)c(CO)c1-c1ccc(F)cc1 [Example 227, 2-Isopropyl-3-hydroxymethyl-4-(4-fluorophenyl)-5-pentyl-6-(2-phenylethyl)pyridine]
18000 nM | C=CCC(O)c1nc(C(C)C)c(CO)c(-c2ccc(F)cc2)c1CCCCC (centres unmarked) [Example 205, 2-(1-Hydroxybut-3-enyl)-3-pentyl-4-(4-fluorophenyl)-5-hydroxymethyl-6-isopropylpyridine]
12000 nM | CCCCCc1c(C(C)C)nc(C(C)C)c(C(O)CO)c1-c1ccc(F)cc1 (racemic) [Example 124, (±)-2,6-Diisopropyl-3-(1,2-dihydroxyethyl)-4-(4-fluorophenyl)-5-pentyl-pyridine]
1800 nM | CCCCCCCCc1c(C(C)C)nc(C(C)C)c(CO)c1-c1ccc(F)cc1 [Example 36, 2,6-Diisopropyl-3-hydroxymethyl-4-(4-fluorophenyl)-5-octylpyridine]
1000 nM | CCc1c(C(C)C)nc(C(C)C)c(CO)c1-c1ccc(F)cc1 [Example 26, 2,6Diisopropyl-3-hydroxymethyl-4-(4-fluorophenyl)-5-ethylpyridine]
17000 nM | CCCCCc1c(C(C)C)nc(C)c(CO)c1-c1ccc(F)cc1 [Example 198, 2-Isopropyl-3-pentyl-4-(4-fluorophenyl)-5-hydroxymethyl-6-methylpyridine]
850 nM | CCCCCCc1c(C(C)C)nc(C(C)C)c(CO)c1-c1ccccc1 [Example 16, 2,6Diisopropyl-3-hydroxymethyl-4-phenyl-5-hexylpyridine]

Same assay, conditions: IC50, 125I-glucagon; 60 min at room temperature

SMILES | IC50
CCCCCc1c(C)nc(C(C)C)c(CO)c1-c1ccc(F)cc1 [Example 197, 2-Isopropyl-3-hydroxymethyl-4-(4-fluorophenyl)-5-pentyl-6-methyl-pyridine] | 7000 nM
